Source: paper PMC9879200, “Dual-target ligand discovery for Alzheimer’s disease: triphenylphosphoranylidene derivatives as inhibitors of acetylcholinesterase and β-amyloid aggregation” (Journal of Enzyme Inhibition and Medicinal Chemistry, 2023)
“Also recorded” adds a separate entry of the source. Where two headings read alike, the source gives them in different places.

Assays:
[1] = biological target: T1, AChE (Homo sapiens, UniProt P22303); assay: In vitro AChE inhibition assay (improved Ellman spectrophotometric method); type: biochemical
T1 construct: purchased Bioassays System (BioAssay Systems) IACE-100
T1 sequence (P22303 32-614): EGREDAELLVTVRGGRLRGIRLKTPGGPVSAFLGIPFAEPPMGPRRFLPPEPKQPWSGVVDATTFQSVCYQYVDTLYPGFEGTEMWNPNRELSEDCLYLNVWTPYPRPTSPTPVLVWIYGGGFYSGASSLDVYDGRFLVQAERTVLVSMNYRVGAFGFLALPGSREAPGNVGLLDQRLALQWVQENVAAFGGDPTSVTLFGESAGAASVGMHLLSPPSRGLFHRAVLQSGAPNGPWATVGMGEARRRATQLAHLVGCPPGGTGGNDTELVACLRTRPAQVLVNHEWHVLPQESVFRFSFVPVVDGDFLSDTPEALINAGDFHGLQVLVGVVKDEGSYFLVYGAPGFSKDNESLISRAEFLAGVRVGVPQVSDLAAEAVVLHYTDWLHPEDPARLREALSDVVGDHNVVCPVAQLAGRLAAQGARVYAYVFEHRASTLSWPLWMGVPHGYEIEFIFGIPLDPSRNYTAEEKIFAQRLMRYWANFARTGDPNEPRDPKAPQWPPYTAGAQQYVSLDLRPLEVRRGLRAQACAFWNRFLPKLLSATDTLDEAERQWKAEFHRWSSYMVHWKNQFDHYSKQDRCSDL
Description: (§1) For AChE and BuChE inhibition experiments, Ellman et al. method’s was applied with a few minor adjustments. According to the manufacturer’s recommendations, the QuantiChromTM AChE Inhibitor Screening Kit (IACE-100), Bioassays System, and the Cholinesterase (ChE) Activity Assay Kit, LifeSpan BioSciences, Inc., USA, were used to measure the inhibition of AChE and BuChE, respectively. […] The relationship between product colour and enzyme activity after inhibition is established. Substrates included butyrylthiocholine iodide and acetylthiocholine iodide.

[2] = biological target: T2, BuChE enzyme (Homo sapiens, UniProt P06276); assay: In vitro BuChE inhibition assay (modified Ellman spectrophotometric method); type: biochemical
T2 construct: purchased LifeSpan BioSciences, Inc., USA
T2 sequence (P06276 29-602): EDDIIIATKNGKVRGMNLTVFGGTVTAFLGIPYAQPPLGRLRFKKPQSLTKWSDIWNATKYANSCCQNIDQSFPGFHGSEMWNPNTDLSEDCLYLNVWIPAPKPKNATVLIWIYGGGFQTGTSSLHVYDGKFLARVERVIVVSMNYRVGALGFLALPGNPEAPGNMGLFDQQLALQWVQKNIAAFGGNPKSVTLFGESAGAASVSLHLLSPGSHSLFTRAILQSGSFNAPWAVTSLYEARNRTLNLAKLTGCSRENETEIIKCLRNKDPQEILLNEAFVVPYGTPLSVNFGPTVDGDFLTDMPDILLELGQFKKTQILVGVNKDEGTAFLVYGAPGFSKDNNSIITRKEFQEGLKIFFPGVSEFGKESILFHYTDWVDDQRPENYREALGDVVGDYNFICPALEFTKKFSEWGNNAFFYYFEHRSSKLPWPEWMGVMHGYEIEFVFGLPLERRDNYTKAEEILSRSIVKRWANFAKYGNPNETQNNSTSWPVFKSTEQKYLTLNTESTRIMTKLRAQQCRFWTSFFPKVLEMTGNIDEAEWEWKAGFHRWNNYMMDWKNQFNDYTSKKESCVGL
Experimental: This was carried out by using the modified Ellman spectrophotometric method.
as §1

[3] = biological target: T3, MMP-2 (Homo sapiens, UniProt P08253); assay: MMP-2 inhibitor screening assay (fluorometric, FRET peptide); type: biochemical
T3 construct: purchased Abcam ab139447
T3 sequence (P08253 110-660): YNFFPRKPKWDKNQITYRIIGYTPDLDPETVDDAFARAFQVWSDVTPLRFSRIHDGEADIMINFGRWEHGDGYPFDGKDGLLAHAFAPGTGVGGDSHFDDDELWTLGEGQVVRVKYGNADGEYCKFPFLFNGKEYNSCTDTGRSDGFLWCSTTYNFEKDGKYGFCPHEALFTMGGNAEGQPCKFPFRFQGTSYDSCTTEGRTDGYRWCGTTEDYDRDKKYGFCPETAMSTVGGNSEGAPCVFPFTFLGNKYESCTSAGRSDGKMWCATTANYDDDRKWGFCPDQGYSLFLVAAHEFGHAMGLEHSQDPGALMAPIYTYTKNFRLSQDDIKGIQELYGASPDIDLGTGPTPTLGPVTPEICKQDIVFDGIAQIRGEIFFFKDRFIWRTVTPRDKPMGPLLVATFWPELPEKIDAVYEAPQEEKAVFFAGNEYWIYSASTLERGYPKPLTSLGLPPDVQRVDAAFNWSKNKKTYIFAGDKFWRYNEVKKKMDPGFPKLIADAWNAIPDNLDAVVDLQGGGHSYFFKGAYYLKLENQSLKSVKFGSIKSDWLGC
Description: Matrix Metalloproteinase-2 (MMP-2) is known for its impact on neurological disorders as AD[44–46].
This assay kit uses a fluorescence resonance energy transfer (FRET) peptide as a generic MMP activity indicator. In the intact FRET peptide, the fluorescence of one part is quenched by another. After cleavage into two separate fragments by MMPs, the fluorescence is recovered.

[4] = biological target: T4, Aβ1–42 (Homo sapiens, UniProt P05067); assay: Self-induced Aβ1–42 aggregation inhibition assay (Thioflavin T, fluorometric); type: biochemical; details: Thioflavin T fluorescence; read-out: Self-induced Aβ1–42 aggregation IC50 (nM) ± SD
T4 construct: the beta amyloid 1–42 (Aβ42) Ligand Screening Assay Kit (Fluorometric) (K570-100); purchased BioVision K570-100
T4 sequence (P05067 672-713 limits assumed): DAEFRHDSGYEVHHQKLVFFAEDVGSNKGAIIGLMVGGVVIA

[5] = biological target: T1, AChE; assay: Kinetic study of AChE inhibition (Lineweaver-Burk and Dixon plots); type: biochemical
Description: Figure 5.
as §1

[6] = SH-SY5Y neuroblastoma cell toxicity (MTT assay); details: human, SH-SY5Y neuroblastoma cells
Experimental: (§2) The cell viability was determined through using MTT assay.
(§3) The American Type Culture Collection provided the cells (Rockville, MD). […] The chemical was applied to the cells at various doses ([…]) for 48 h. The MTT colorimetric assay’s described methodology was then used[57].

[7] = test system: AChE (IC50 in the denominator); assay: SH-SY5Y neuroblastoma cell toxicity (MTT assay); details: human, SH-SY5Y neuroblastoma cells
Experimental: as §2, §3

[8] = test system: scopolamine-induced memory impairment in mice; assay: Y-maze test, scopolamine-induced amnesia model; type: in vivo
Experimental: In order to test potential anticholinergic medication candidates, the in vivo scopolamine model was employed to cause memory impairment in mice. Scopolamine can inhibit the cholinergic system by antagonising the muscarinic receptor[47].
Animal working memory is assessed using the hippocampal-dependent Y-maze test. Working memory is measured using the spontaneous alternation score[48].
In the current investigation, adult Swiss Albino mice (8–10 weeks old, weighing 25–30 g) from the National Research Centre were employed. For 1 week, animals were acclimated in a room with constant illumination, humidity, and temperature (22 °C ± 1 °C, 60%, and 12 h of light/dark cycle). Throughout the experiment, unlimited amounts of food and water were given. Mice were kept in open, opaque propylene cages with good ventilation and wide access to a variety of forages.
(§4) Healthy mice were randomised into four groups of six mice each after a 1-week adaption period, at random, as follows: Group 1 is the control group, which received saline solution with 10% Tween 80. […] Following the injection of scopolamine, the behavioural study will be examined 30 min later.
In the Y-maze, a test of working memory, the animals’ capacity for spontaneous alternation was evaluated[49]. Three equally spaced horizontal arms measuring 120°, 45 cm long, and 16 cm high make up the Y-maze. Each mouse was put into one of the three arms of the maze and given free rein to wander from arm to arm. Both the number and order of arm inputs were recorded. The spontaneous alternation is derived from the following equation as a measure of memory performance: (Alternations/Total Arm Entries) − 2 × 100 = percent alternation. The student’s t-test was used to assess the data.

[9] = test system: scopolamine-induced cognitive impairment; assay: Step-down passive avoidance test, scopolamine-induced amnesia model; type: in vivo; details: mice; for transfer latency time (TLT), passive avoidance test: 1 mg/kg orally 30 min before scopolamine 3 mg/kg intraperitoneal
Experimental: In order to test potential anticholinergic medication candidates, the in vivo scopolamine model was employed to cause memory impairment in mice.
For 1 week, animals were acclimated in a room with constant illumination, humidity, and temperature (22 °C ± 1 °C, 60%, and 12 h of light/dark cycle). Throughout the experiment, unlimited amounts of food and water were given. Mice were kept in open, opaque propylene cages with good ventilation and wide access to a variety of forages.
as §4
The passive avoidance test was conducted in a device that had two independent compartments split by a sliding door. There was a connection between the illuminated chamber and a dark compartment with an electrifiable grid floor, which was free of electric impulses. Each mouse was initially placed in the lit chamber so that it could become accustomed to it. The sliding door is then opened, allowing access to the enclosed, gloomy space. The door was shut once the animal had entered the chamber entirely, and it was then shocked with an electric shock lasting two seconds (24 V, 0.5 mA). The latency time to enter the dark container was measured to gauge working memory (Training trial). Twenty-four hours after the training trial, a test trial was carried out without application of the electric foot shock[50].

[10] = read-out: AChE IC50 (nM) ± SD, average of triplicate determination, Ellman method, pH 7.5

`C[Si]1(Cl)C=CC(=Nc2ccccc2)C1=P(c1ccccc1)(c1ccccc1)c1ccccc1` (stereo not shown) [5a, N-(1-chloro-1-methyl-2-(triphenylphosphoranylidene)-1H-silol-3(2H)-ylidene)aniline] showed an IC50 [1] of 206 nM.

`C[Si]1(Cl)C=CC(=O)C1=P(c1ccccc1)(c1ccccc1)c1ccccc1` (stereo not shown) [5b, 1-Chloro-1-methyl-2-(triphenylphosphoranylidene)-1H-silol-3(2H)-one] showed an IC50 [1] of 345 nM.

In the case of `C=CC(C(=O)OC)=P(c1ccccc1)(c1ccccc1)c1ccccc1` [8b, Methyl 2-(triphenylphosphoranylidene)but-3-enoate], the IC50 [1] is reported as 158 nM.

For `C=CC(C(C)=O)=P(c1ccccc1)(c1ccccc1)c1ccccc1` [8c, 3-(Triphenylphosphoranylidene)pent-4-en-2-one], the IC50 [1] was 97 nM, the IC50 [2] was 0.0848 ± 0.00291 µM and the Selectivity index ([2]; Selectivity index = (BuChE IC50)/(AChE IC50)) was 0.87. For the same compound, the IC50 [3] was 0.724 ± 0.0165 µM, the IC50 [4] was 302 ± 11.4 nM and the “type of AChE inhibition” value ([5]; Lineweaver-Burk plot, Vmax and Km patterns) was “uncompetitively; also recorded: uncompetitive”. It also gave a Ki ([5]; estimate from Dixon plot, read-out: inhibitory constant, Ki) of 0.0157 µM, a CC50 at 48 h [6] of 7.31 ± 0.26 µM and a selectivity ratio at 48 h [7] of 75.3. The “Y-maze test, percent alternations” value ([8]; mice, 1 mg/kg orally 30 min before scopolamine 3 mg/kg intraperitoneal) was 83.9% and the “transfer latency time (TLT), passive avoidance test” value [9] was 45.2 s.

In the case of `C=CC(C(=O)c1ccccc1)=P(c1ccccc1)(c1ccccc1)c1ccccc1` [8d, 1-Phenyl-2-(triphenylphosphoranylidene)but-3-en-1-one], the IC50 [1] is reported as 426 nM.

`c1ccc(N=c2c(-c3ccccc3)c(-c3ccccc3)c2=P(c2ccccc2)(c2ccccc2)c2ccccc2)cc1` [11a, N-(2,3-diphenyl-4-(triphenylphosphoranylidene)cyclobut-2-en-1-ylidene)aniline] showed an IC50 [1] of 185 nM.

In the case of `O=c1c(-c2ccccc2)c(-c2ccccc2)c1=P(c1ccccc1)(c1ccccc1)c1ccccc1` [11b, 2,3-Diphenyl-4-(triphenylphosphoranylidene)cyclobut-2-enone], the IC50 [1] is reported as 508 nM.

With `CCc1c(CC)c(=P(c2ccccc2)(c2ccccc2)c2ccccc2)c1=O` [13b, 2,3-Diethyl-4-(triphenylphosphoranylidene)cyclobut-2-enone] the IC50 [1] was 249 nM.

`C[Si]1(Cl)C=C/C(=N\c2ccccc2)C1=P(c1ccccc1)(c1ccccc1)c1ccccc1` (stereo not shown) [C00001] gave an IC50 [1] of 206 ± 7.33 nM.

`c1ccc(/N=c2/c(-c3ccccc3)c(-c3ccccc3)c2=P(c2ccccc2)(c2ccccc2)c2ccccc2)cc1` [C00002] gave an IC50 [1] of 185 ± 9.22 nM.

For `CCc1c(CC)/c(=N/c2ccccc2)c1=P(c1ccccc1)(c1ccccc1)c1ccccc1` [C00006], the IC50 [1] was 507 ± 22.1 nM.

`CCc1c(CC)c(=P(c2ccccc2)(c2ccccc2)c2ccccc2)c1=O` [C00008] gave an IC50 [1, 10] of 249 ± 10.4 nM.

For `C[Si](C)(C)c1c([Si](C)(C)C)c(=P(c2ccccc2)(c2ccccc2)c2ccccc2)c1=O` [C00010], the IC50 [1, 10] was 113 ± 4.82 nM.

With `COc1cc2c(cc1OC)C(=O)C(CC1CCN(Cc3ccccc3)CC1)C2` (stereo not shown) [Donepezil] the “Y-maze test, percent alternations” value ([8]; 1 mg/kg) was 80.7% and the “transfer latency time (TLT), passive avoidance test” value [9] was 44.0 s.

For `CN1[C@@H]2C[C@@H](OC(=O)[C@H](CO)c3ccccc3)C[C@H]1[C@@H]1O[C@@H]12` [Scopolamine], the “Y-maze test, percent alternations, scopolamine model group” value ([8]; mice, scopolamine 3 mg/kg intraperitoneal alone, control group 82.1) was 51.2% and the “transfer latency time (TLT), passive avoidance test, scopolamine-treated group” value ([9]; scopolamine 3 mg/kg intraperitoneal alone) was 27.2 s.

`C[Si](C)(C)c1c([Si](C)(C)C)c(=P(c2ccccc2)(c2ccccc2)c2ccccc2)c1=O` [compound 15, 2,3-Bis(trimethylsilyl)-4-(triphenylphosphoranylidene)cyclobut-2-enone] showed an IC50 [1] of 113 nM.
